Columns and labels:
Assay type in all cases: physicochemical
[1] = Particle size distribution (PSD)
[2] = Stability and hygroscopicity of the crystalline form; conditions: statement in words, no data
[3] = Powder properties of the crystalline form (bulk and tapped density, compressibility, Hausner ratio)
[4] = product of Example 1 (from isobutyl methyl ketone)

Structure (SMILES): CC(C)OC(=O)[C@H](C)N[P@](=O)(OC[C@H]1O[C@@H](n2ccc(=O)[nH]c2=O)[C@](C)(F)[C@@H]1O)Oc1ccccc1 [Sofosbuvir Form α]
- PSD: size of the 90% of the particles ([1]; general characterisation of the form): 10 to 50 μm
- PSD d(0.1) [1, 4]: 1.831 μm
- PSD d(0.5) [1, 4]: 5.263 μm
- PSD d(0.9) [1, 4]: 20.369 μm
- Hygroscopicity [2]: not hygroscopic
- Stability of the crystalline form [2]: stable
- Bulk Density [3]: 0.22 g/mL
- Compressibility index [3]: 24.4
- Hausner ratio [3]: 1.32
- Tapped Density [3]: 0.29 g/mL
